Results taken from US20040224914A1, “Method for treatment of angiogenic disorders” (The University of British Columbia, priority 2003, published 2004).

Experiments:
HUVECS [1] = assay: HUVECS cell viability (mts) after antisense with or without drug; assay type: cell-based, human
Method: HUVECS were grown for 2 days in wells after seeding at 1200 per well. Antisense oligonucleotide of Seq. ID No. 5 (4 μg/ml with LIPOFECTIN™) was added in serum free medium and incubated with the cells for 4 hours. Then 100 μl of serum was added and incubation was continued overnight. The next day, 150 μl of drug solution in serum medium was added. After two days, 20 μl of mts solution was added and left for approximately 3 hours. Cell viability was determined as the difference between absorption at 490 and 595 nm.

HUVECS [2] = details: by the induction of apoptosis; cited from earlier work
[3] = Table 2 series, Drug alone (100 nM camptothecin)
[4] = Table 3 series, Drug alone (200 nM doxorubicin)
[5] = Table 1 series, Drug alone (100 nM paclitaxel)
[6] = Table 1 series, AS 50 nM, no drug
[7] = Table 1 series, AS 100 nM, no drug
[8] = Table 1 series, AS 200 nM, no drug
[9] = Table 1 series, Drug (100 nM paclitaxel) + AS 50 nM
[10] = Table 1 series, Drug (100 nM paclitaxel) + AS 100 nM
[11] = Table 1 series, Drug (100 nM paclitaxel) + AS 200 nM
[12] = Table 2 series, AS 50 nM, no drug
[13] = Table 2 series, AS 100 nM, no drug
[14] = Table 2 series, AS 200 nM, no drug
[15] = Table 2 series, Drug (100 nM camptothecin) + AS 50 nM
[16] = Table 2 series, Drug (100 nM camptothecin) + AS 100 nM
[17] = Table 2 series, Drug (100 nM camptothecin) + AS 200 nM
[18] = Table 3 series, AS 50 nM, no drug
[19] = Table 3 series, AS 100 nM, no drug
[20] = Table 3 series, AS 200 nM, no drug
[21] = Table 3 series, Drug (200 nM doxorubicin) + AS 50 nM
[22] = Table 3 series, Drug (200 nM doxorubicin) + AS 100 nM
[23] = Table 3 series, Drug (200 nM doxorubicin) + AS 200 nM

## CC[C@@]1(O)C(=O)OCc2c1cc1n(c2=O)Cc2cc3ccccc3nc2-1 [camptothecin, reference compound]
HUVECS [1]; [3]
  absorbance at 490 nm (mts, cell viability): 0.55
  absorbance at 595 nm (mts, cell viability): 0.07
HUVECS [2]
  concentration range that inhibits Huvecs: low nanomolar range

## COc1cccc2c1C(=O)c1c(O)c3c(c(O)c1C2=O)C[C@@](O)(C(=O)CO)C[C@@H]3O[C@H]1C[C@H](N)[C@H](O)[C@H](C)O1 [doxorubicin, reference compound]
HUVECS [1]; [4]
  absorbance at 490 nm (mts, cell viability): 0.74
  absorbance at 595 nm (mts, cell viability): 0.08
HUVECS [2]
  concentration range that inhibits Huvecs: low nanomolar range

## CC(=O)O[C@H]1C(=O)[C@@]2(C)[C@H]([C@H](OC(=O)c3ccccc3)[C@]3(O)C[C@H](OC(=O)[C@H](O)[C@@H](NC(=O)c4ccccc4)c4ccccc4)C(C)=C1C3(C)C)[C@]1(OC(C)=O)CO[C@@H]1C[C@@H]2O [paclitaxel, reference compound]
HUVECS [1]; [5]
  absorbance at 490 nm (mts, cell viability): 0.53
  absorbance at 595 nm (mts, cell viability): 0.12
HUVECS [2]
  concentration range that inhibits Huvecs: low nanomolar range

## AS: Antisense oligonucleotide of Seq. ID No. 5, which reduces the effective amount of clusterin (antisense CAGCAGCAGAGTCTTCATCAT; listed as DNA, chemistry not given here)
HUVECS [1]; FIG. 1, paclitaxel series
  cell viability response to antisense concentration: dose dependent response
HUVECS [1]; FIG. 1, in the presence of 100 nM paclitaxel
  cell viability response to antisense in the presence of drug versus absence: the response is greater
HUVECS [1]; FIG. 2, camptothecin series
  cell viability response to antisense concentration: dose dependent response
HUVECS [1]; FIG. 2, in the presence of 100 nM camptothecin
  cell viability response to antisense in the presence of drug versus absence: the response is greater
HUVECS [1]; FIG. 3, doxorubicin series
  cell viability response to antisense concentration: dose dependent response
HUVECS [1]; FIG. 3, in the presence of 200 nM doxorubicin
  cell viability response to antisense in the presence of drug versus absence: the response is greater
HUVECS [1]; [6]
  absorbance at 490 nm (mts, cell viability): 0.66
  absorbance at 595 nm (mts, cell viability): 0.04
HUVECS [1]; [7]
  absorbance at 490 nm (mts, cell viability): 0.40
  absorbance at 595 nm (mts, cell viability): 0.09
HUVECS [1]; [8]
  absorbance at 490 nm (mts, cell viability): 0.28
  absorbance at 595 nm (mts, cell viability): 0.07
HUVECS [1]; [9]
  absorbance at 490 nm (mts, cell viability): 0.50
  absorbance at 595 nm (mts, cell viability): 0.09
HUVECS [1]; [10]
  absorbance at 490 nm (mts, cell viability): 0.24
  absorbance at 595 nm (mts, cell viability): 0.04
HUVECS [1]; [11]
  absorbance at 490 nm (mts, cell viability): 0.17
  absorbance at 595 nm (mts, cell viability): 0.05
HUVECS [1]; [12]
  absorbance at 490 nm (mts, cell viability): 0.66
  absorbance at 595 nm (mts, cell viability): 0.10
HUVECS [1]; [13]
  absorbance at 490 nm (mts, cell viability): 0.39
  absorbance at 595 nm (mts, cell viability): 0.06
HUVECS [1]; [14]
  absorbance at 490 nm (mts, cell viability): 0.21
  absorbance at 595 nm (mts, cell viability): 0.04
HUVECS [1]; [15]
  absorbance at 490 nm (mts, cell viability): 0.53
  absorbance at 595 nm (mts, cell viability): 0.07
HUVECS [1]; [16]
  absorbance at 490 nm (mts, cell viability): 0.31
  absorbance at 595 nm (mts, cell viability): 0.08
HUVECS [1]; [17]
  absorbance at 490 nm (mts, cell viability): 0.15
  absorbance at 595 nm (mts, cell viability): 0.05
HUVECS [1]; [18]
  absorbance at 490 nm (mts, cell viability): 0.66
  absorbance at 595 nm (mts, cell viability): 0.07
HUVECS [1]; [19]
  absorbance at 490 nm (mts, cell viability): 0.35
  absorbance at 595 nm (mts, cell viability): 0.05
HUVECS [1]; [20]
  absorbance at 490 nm (mts, cell viability): 0.22
  absorbance at 595 nm (mts, cell viability): 0.04
HUVECS [1]; [21]
  absorbance at 490 nm (mts, cell viability): 0.66
  absorbance at 595 nm (mts, cell viability): 0.06
HUVECS [1]; [22]
  absorbance at 490 nm (mts, cell viability): 0.32
  absorbance at 595 nm (mts, cell viability): 0.04
HUVECS [1]; [23]
  absorbance at 490 nm (mts, cell viability): 0.18
  absorbance at 595 nm (mts, cell viability): 0.02
HUVECS [1]; paclitaxel, camptothecin, doxorubicin, downregulation of clusterin
  effect of antisense on inhibition of cell proliferation induced by antiproliferative drugs: enhanced
